Assay results: patent US10357486B2, “Treatment of cognitive impairment with PDE4 inhibitor” (Universiteit Maastricht, priority 2013, dated 2019)

Legend:
Type in all cases: in vivo, human
[1] = test system: healthy adults (18 to 35 years); assay: EEG Event Related Potentials (P600) during VLT in healthy adults; conditions: single oral dose of 100 mcg
Excerpt: Event Related Potential Analysis An electroencephalogram (EEG) cap was used to place a set of 32 EEG electrodes according to the international 10-20 system on the subjects. Event Related Potentials (ERPs) were extracted by averaging the responses within an epoch of 100 ms before and 1000 ms after stimulus onset covering P300, N400, and P600. Separate averages were made for correct and incorrect responses within a task and for different trial types. EEG measurements were done simultaneously with VLT testing. ERPs were calculated from the words that were called during immediate recall (encoding), and from the words that were recognized and from those that were not during the recognition condition at 45 minutes. The ERP components of P300, N400, and P600 were compared to examine whether the initial stimulus processing during the learning trials differs from word to word. Finally, ERPs to the old and new items during the recognition task were measured.
Tests of Within-Subjects Contrasts were regarded for immediate and delayed free recall scores and for the summed immediate recall score (i.e. immediate 1+immediate 2+immediate 3). The factor Treatment (4 levels; placebo, roflumilast 100 mcg, roflumilast 300 mcg and roflumilast 1000 mcg) was included as a within subjects factor. […] Peak and latency values of three memory related ERP's were analysed; i.e. P300, N400 and P600. […]

[2] = test system: healthy adults (18 to 35 years); assay: Verbal Learning Task (VLT) in healthy adults, 18 to 35 years
Excerpt: The objective of this proof-of-concept study was to validate Roflumilast as cognitive enhancer using a translational behavior (i.e., cognitive testing)—EEG (i.e., brain electrical activity) approach.
Verbal Learning Task Analysis_The study utilized Verbal Learning Task (VLT) to analyze the increased number of words remembered following roflumilast administration. The VLT consisted of displaying 30 monosyllable words on a computer screen for a period of 60 seconds. Immediately after the presentation of the words on the computer screen subjects were asked to report as many words as they could recall by memory. This process (presentation and recall) was repeated further two times. In addition, 45 min and 24 h after the last presentation, subjects were again asked to report as many words as they could recall by memory. The set of three recall trials was conducted 60 minutes following administration of the roflumilast therapy.
Statistical Data Analyses Human data was analyzed using IBM SPSS Statistics version 20. General Linear Models for repeated measures were applied with the placebo condition included as contrast. Statistical outcomes for Tests of Within-Subjects Effects and
Tests of Within-Subjects Contrasts were regarded for immediate and delayed free recall scores and for the summed immediate recall score (i.e. immediate 1+immediate 2+immediate 3). The factor Treatment (4 levels; placebo, roflumilast 100 mcg, roflumilast 300 mcg and roflumilast 1000 mcg) was included as a within subjects factor. For the analysis of the EEG data, the factor Channel (5 levels; Fz, FCz, Cz, CPz, and Pz) was included as a second within subjects factor. Peak and latency values of three memory related ERP's were analysed; i.e. P300, N400 and P600. In case of significant findings (p<0.05) post-hoc t-tests were performed to reveal which of the five midline electrodes contributed to the effect.

[3] = test system: 60 to 80 years old subjects (Impaired Elderly and Healthy Elderly); assay: Verbal Learning Task (VLT) in 60 to 80 years old subjects, interim analysis
Experimental: The study is conducted according to a double-blind, placebo-controlled, four-period cross-over design. Forty healthy subjects, both male and female within an age range of 60 to 80 years are planned to be included in the study in 2 groups: 1) 20 subjects with a memory performance between 1-2 Standard Deviation below the average for their age, gender, and educated level (Impaired Elderly) and 2) 20 subjects with age (±3 years), gender, and educational level matched (in order to speed up the study matching was stopped after the interim analysis) with an average memory performance between 0.5 Standard Deviation below and 0.5 Standard Deviation above from normative values (Healthy Elderly). Classification in terms of impaired or healthy elderly will be determined by a one-off testing of memory performance using the Rey Verbal Learning Task (Rey A; L'examen psychologique dans les cas d'encephalopathy traumatique 1958 Paris; Presses Universitaire de France; or Van der Elst et al; J Int Neuropsychol Soc 2005, 11 (3), pp 290-302) according to fully standardized procedures as applied in The Maastricht Aging Study (Jolles et al; Maastricht Aging Study; determinants of cognitive aging; Maastricht, The Netherlands, Neuropsych Publishers 1995). Normative data for each individual subject will be derived also from the Maastricht Aging Study using the regression formula as described by Van der Elst et al (Van der Elst et al; J Int Neuropsychol Soc 2005, 11 (3), pp 290-302).
All subjects within their corresponding groups (either Healthy Elderly n=20 or Impaired Elderly n=20) will be randomized in a double blind fashion to 1 of 4 treatment sequences, each sequence consisting of the following periods: A) Placebo+placebo; B) Roflumilast 100 mcg+placebo; C) Roflumilast […]+placebo and D) Roflumilast 1000 mcg (500+500 mcg) according to a computer-generated allocation schedule in a cross-over design. Between each of the four treatment sequences there will be a 12 days washout period.
Cognitive status will be quantified using computerized cognitive battery, a validated tool for measuring the cognitive impairment in humans. The battery will consist of: VLT, Spatial Memory Task (SMT), Stroop Task, and Bond-Lader Visual Analogue Scales (BL-VAS).
Verbal learning task (VLT) The Rey VLT as modified by Riedel and colleagues (Riedel, Klaasen et al, Psychopharmacology (Berlin) 1999 Vol 141(4) pp 362-369) is used. This modified VLT maximizes the possibility of measuring enhancement rather than only impairment, by means of prolonging the list. The test consists of a list of 30 monosyllabic words (18 nouns and 12 adjectives). The words are shown on a computer screen for 1 second. Three trials with the same item sequence are presented. Each trial ends with a free recall of the words (immediate recall). Forty-five minutes after the first exposure, the subject is asked to recall as many words as possible (delayed recall). […] The words are shown on a computer screen for 2 seconds and subjects are asked to rate whether they were presented in the learning trial by a “yes/no” response. The inter-word interval is 2 seconds. 24 Hours after the immediate recall, subjects will return to the lab for a second delayed recall and recognition. The remaining 15 old words and 15 new words will be presented during recognition. EEG will be recorded during the immediate recall and the first recognition test on the test day. […]

Structure (SMILES): O=C(Nc1c(Cl)cncc1Cl)c1ccc(OC(F)F)c(OCC2CC2)c1 [roflumilast, N-(3,5-dichloropyridin-4-yl)-3-cyclopropylmethoxy-4-difluoromethoxybenzamide]
- amplitude of Event-Related Potential P600 during VLT [1]: strongest increase of amplitude
- amplitude of Event-Related Potential P600 during VLT ([1]; listed as Roflumilast): increased amplitude
- placebo-corrected fold-improvement in VLT ([2]; 100 mcg single dose, healthy volunteer study, 3rd trial): 1.12
- number of words on the 3rd trial of VLT ([2]; 100 mcg single dose, young volunteers, placebo 21.25): 23.7 words
- improvement in number of correct words recalled in VLT (average) ([2]; single oral dose of 100 mcg, after the third trial): 2.5 words
- number of words on the 3rd trial of VLT ([3]; 100 mcg single dose, elderly subjects, placebo 8.81): 10.28 words
- placebo-corrected fold-improvement in VLT ([3]; 100 mcg single dose, interim data of the elderly study): 1.16
- increase in the number of correct words recalled after 45 min delayed recall trial of VLT, compared to placebo ([3]; 100 mcg single dose, pooled interim analysis): 1.7 words
- increase in the number of correct words immediately recalled after the 3rd trial of VLT, compared to placebo ([3]; 100 mcg single dose, pooled interim analysis, 9 Impaired and 4 Healthy Elderly): 1.5 words
- increase in the number of correct words recalled after 45 min delayed recall trial of VLT, compared to placebo ([3]; 1000 mcg single dose, pooled interim analysis): 1.6 words
